# PMC7154053, “Chemical, Metabolic, and Cellular Characterization of a FtsZ Inhibitor Effective Against Burkholderia cenocepacia” (Frontiers in Microbiology, 2020)
# Like-named read-outs stand apart in the source and are kept apart here.
# How the values were obtained:
# [1] = molecular target: Burkholderia cenocepacia purified FtsZ protein (Burkholderia cenocepacia, UniProt B4E5Y7); test: biochemical; type: biochemical; conditions: Yes/No
# Experimental: All the recombinant FtsZ proteins were expressed at 20°C overnight in E. coli BL21(DE3) cells, upon induction with 0.5 mM IPTG, and purified using the same protocol assessed for the wild-type B. cenocepacia FtsZ (Hogan et al., [2018]).
# GTPase enzyme activity was determined using a pyruvate kinase/L-lactic dehydrogenase (PK/LDH) spectrophotometric coupled assay (Ingerman and Nunnari, [2005]). The assays were performed at 30°C, in a reaction mixture containing […] Hepes pH 7.5, 5 mM MgCl2, 5 mM KCl, 10 U PK/LDH, 0.25 mM NADH, 0.25 mM PEP, and 5–10 μM FtsZ, and initiated by the addition of 0.5 mM GTP. Alternatively, GTPase activity was determined by measuring the release of phosphate using the malachite green assay (Baykov et al., [1988]).
# (1) A[I]=A[0]×(1-[I]/[I]+IC50)
# where A[I] is the enzyme activity at inhibitor concentration [I] and A[0] is the enzyme activity without inhibitor.
# [2] = test system: B. cenocepacia FCF19; test: Checkerboard assay with efflux pump inhibitor PaβN MC-207.110; type: cell-based, Burkholderia cenocepacia; conditions: Burkholderia cenocepacia, FCF19; read-out: MIC in the presence of MC-207.110, FCF19
# Experimental: (§1) The microtiter plates were incubated at 37°C for 48 (for B. cenocepacia) or 24 h (for all the other strains) and growth was determined by the resazurin method (Martin et al., [2006]). A solution of resazurin sodium salt (Sigma Aldrich) was prepared at 0.01% in distilled water and filter-sterilized. Thirty microliter of resazurin solution were added to each well after 1 or 2 days of incubation at 37°C, and the microtiters were re-incubated at the same temperature for 4 h. The MIC was defined as the lowest concentration of the drug that prevented a change in color from blue to pink, which indicates bacterial growth. […] Three independent biological replicates were used for each MIC determination.
# [3] = test system: B. cenocepacia FCF22; test: as above; type: cell-based, Burkholderia cenocepacia; conditions: Burkholderia cenocepacia, FCF22; read-out: MIC in the presence of MC-207.110, FCF22
# Experimental: as §1
# [4] = test system: S. aureus ATCC 25923; test: MIC, 2-fold microdilution, resazurin method; type: cell-based, Staphylococcus aureus; conditions: Staphylococcus aureus, ATCC25923
# Experimental: (§2) Burkholderia cenocepacia strains, Escherichia coli ATCC 25922, Pseudomonas aeruginosa PAO1, and Staphylococcus aureus ATCC 25923 were grown in Luria-Bertani (LB) medium (Difco), if not differently specified, with shaking at 200 rpm, or on LB agar, at 37°C.
# (§3) The microtiter plates were incubated at 37°C for 48 (for B. cenocepacia) or 24 h (for all the other strains) and growth was determined by the resazurin method (Martin et al., [2006]). A solution of resazurin sodium salt (Sigma Aldrich) was prepared at 0.01% in distilled water and filter-sterilized. Thirty microliter of resazurin solution were added to each well after 1 or 2 days of incubation at 37°C, and the microtiters were re-incubated at the same temperature for 4 h. The MIC was defined as the lowest concentration of the drug that prevented a change in color from blue to pink, which indicates bacterial growth.
# (§4) Three independent biological replicates were used for each MIC determination.
# [5] = test system: P. aeruginosa; test: Checkerboard assay with efflux pump inhibitor PaβN MC-207.110; type: cell-based, Pseudomonas aeruginosa
# Experimental: as §1
# [6] = test system: B. cenocepacia FCF19; test: MIC, 2-fold microdilution, resazurin method; type: cell-based, Burkholderia cenocepacia; conditions: Burkholderia cenocepacia; clinical isolate FCF19
# Experimental: as §2, §3, §4
# [7] = test system: B. cenocepacia J2315; test: MIC, 2-fold microdilution, resazurin method; type: cell-based, Burkholderia cenocepacia; conditions: Burkholderia cenocepacia
# Experimental: as §2, §3, §4
# [8] = test system: B. cenocepacia FCF22; test: MIC, 2-fold microdilution, resazurin method; type: cell-based, Burkholderia cenocepacia; conditions: Burkholderia cenocepacia; clinical isolate FCF22
# Experimental: as §2, §3, §4
# [9] = test system: CF bronchial epithelial (CFBE41o-) cell line; parameters: method as in Hogan et al., 2018; Costabile et al., 2020; conditions: CFBE41o- cells; ref Hogan et al., 2018; Costabile et al., 2020; cited from earlier work
# Chain of Burkholderia cenocepacia purified FtsZ protein (B4E5Y7 entry or part of it): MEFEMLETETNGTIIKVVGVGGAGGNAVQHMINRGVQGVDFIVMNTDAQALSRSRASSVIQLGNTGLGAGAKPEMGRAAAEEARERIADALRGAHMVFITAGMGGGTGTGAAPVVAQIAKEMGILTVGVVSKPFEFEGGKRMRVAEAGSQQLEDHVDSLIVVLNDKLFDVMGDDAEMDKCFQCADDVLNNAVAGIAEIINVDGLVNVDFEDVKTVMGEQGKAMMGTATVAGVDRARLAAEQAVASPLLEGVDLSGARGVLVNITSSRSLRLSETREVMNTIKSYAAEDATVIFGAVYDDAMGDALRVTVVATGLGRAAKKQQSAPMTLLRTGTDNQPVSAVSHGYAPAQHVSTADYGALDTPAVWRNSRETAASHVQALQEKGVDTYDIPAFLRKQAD
compound,measurement,setting,value
"COC(=O)CSc1ccc2nsnc2c1[N+](=O)[O-] [C109, methyl [(4-nitro-2,1,3-benzothiadiazol-5-yl)thio]acetate]",Inhibition of Bc FtsZ At 100 μM,[1]; 100 μM compound,Yes
same,Inhibits B. cenocepacia FtsZ GTPase at 100µM?,"[1]; 100 µM, Supplementary Table 1",Yes
same,MIC,[2],8 µg/mL
same,MIC,[3],16 µg/mL
same,MIC,"[4]; LB, 24 h, read-out: MIC S. aureus 25923",4 µg/mL
same,MIC,"[4]; Supplementary Table 1, read-out: MIC (µg/ml) S. aureus 25923",4 µg/mL
same,MIC,"[5]; Pseudomonas aeruginosa, read-out: MIC in the presence of MC-207.110, P. aeruginosa",1 µg/mL
same,effect of combination with MC-207.110,"[5]; checkerboard, P. aeruginosa",synergistic effect
same,MIC,[6],128 µg/mL
same,MIC,"[7]; J2315, read-out: MIC (µg/ml) B. cenocepacia J2315",8 µg/mL
same,MIC,"[7]; J2315, LB, 48 h, read-out: MIC B. cenocepacia J2315",8 µg/mL
same,MIC,[8],256 µg/mL
same,toxic concentration at 50% (TC50),[9],about 75 μM
